# Assay results taken from patent US11110195B2, “Esculentin 1a derivatives and uses thereof” (University of Houston System, priority 2013, dated 2021).
# Residues, ends and D or L forms follow the SMILES beside them.
# What was measured:
# [1] = test system: Pseudomonas aeruginosa ATCC 19660 induced keratitis; test: Clinical grading of Pseudomonas keratitis in mice; type: in vivo, C57BL/6 mice; settings: scale 0-4
# Protocol: C57BL/6 mice were infected in one eye with P. aeruginosa ATCC 19660 and treated with 40 μM Esc-1a(1-21)NH2 or vehicle control (PBS). In some animals (Pre-trt group) treatment with Esc-1a(1-21)NH2 was initiated 24 hrs prior to infection. […] There was no significant difference between the Esc-1a(1-21)NH2 pretreatment group and when treatment was begun after infection.
# To determine a clinical score, neutrophil infiltration by myeloperoxidase assay (MPO assay) and viable bacterial cell counts in infected and control corneas of C57BL/6 mice with Pseudomonas aeruginosa ATCC 19660 keratitis following pre-treatment and post-infection treatment with Esc-1a(1-21)NH2 up to 5 days post-infection (PI) the following experiment was performed. In these experiments pre-treatment refers to a group of animals where treatment was initiated 24 hrs before infection then continued after infection.
# Images of the uninfected control and infected eye were taken on days 1, 3 and 5 PI using a camera equipped slit lamp biomicroscope. Clinical grading of infection on days 1, 3 and 5 PI was by visualizing through a slit lamp and using an established grading scale (Table 2). A myeloperoxidase assay was used to quantitate the polymorphonuclear cell numbers in the infected and control corneas (data presented in FIG. 6). Viable counts for bacteria were recovered from corneas at day 1, 3 and 5 PI (FIG. 7).
# 1. IP injections of ketamine and xylazine mixture were given (final dose 100 and 10 mg/kg respectively) to anesthetize the mice.
# 2. Pre-treatment group-5 μl of peptide (40 μM) was instilled topically onto intact corneas—3 times in 24 h.
# 3. Day 0—Day of infection: • a. 3×1 mm parallel scratches were made at the center of the right cornea of the mice using a 271/2 gauge needle and 5 μl of P. aeruginosa ATCC19660 bacterial solution (1×10^6 CFU) was pipetted on the wounded cornea. • b. Topically pipetted 5 μl of 40 μM Esc-1a(1-21)NH2 or vehicle (PBS) on the cornea 2-times on Day 0 starting 5 hours after bacterial infection.
# 4. Day 1 post-infection: • a. Captured images and graded the infection using a slit lamp biomicroscope. • b. Harvested corneas from 2 mice per group, pooled the corneas and processed them to perform the MPO assay. • c. Instilled peptide or vehicle three times/24 hrs (6.30 am, 1.30 pm, 8.30 pm).
# 5. Repeated the peptide or vehicle treatment 3 times a day for the next 4 days.
# 6. In addition, captured images, graded the infection and repeated the MPO assay on Day 3 and 5 post-infection.
# The mean clinical scores for the Esc-1a(1-21)NH2 treated and PBS vehicle control group at day 1, 3 and 5 PI obtained from 4 separate experiments where the size of inoculum was 1*10^6 CFU/5 μl were plotted (FIG. 5).
# [2] = test system: A. castellani (ATCC 50370) trophozoites; test: Acanthamoeba viability, ethidium homodimer-1 time lapse microscopy; type: cell-based, Acanthamoeba castellani
# Protocol: FIGS. 8A-8D show the effect of Esc-1a(1-21)NH2 on the viability of Acanthamoeba castellani. The amoeba were seeded in to chamber slides, then a fluorescent viability dye (ethidium homodimer-1) and 500 μg/ml Esc-1a(1-21)NH2 added. The amoebas were viewed by time lapse microscopy in an environmental chamber for 6 hours. Images are from before peptide addition at time zero in healthy trophozoites (FIG. 8A), then 10 minutes (FIG. 8B), 2 hours (FIG. 8C) and 6 hours (FIG. 8D) post addition of peptide Esc-1a(1-21)NH2. […] Significant amounts of debris accumulated over time indicating rupture of the cells.
# 1×10^4 A. castellani (ATCC 50370) trophozoites in PYG 712 growth medium were transferred to coverglass chamber slides and allowed to attach overnight. The cells were then incubated with PYG 712 medium containing a 1:100 dilution of ethidium homodimer-1 (EthD-1) for 15 minutes at room temperature. EthD-1 is a cell-impermeant viability indicator dye that is taken up by cells with a compromised plasma membrane and fluoresces red/orange when bound to DNA. Serial brightfield and fluorescence images were taken using a DeltaVision Spectris Core fluorescence microscope every 3 minutes for 30 minutes to visualize cellular health prior to addition of Esc-1a(1-21)NH2. The medium was then replaced with 200 μl growth media containing 125, 250 or 500 μg/ml Esc-1a(1-21)NH2 and 1:100 diluted ethidium homodimer-1. Brightfield and fluorescence images were taken every 3 minutes for another 6 hours. Serial images were compiled together using Softworx software (Applied Precision) to generate time-lapse videos.
# HaCaT cells = test: Wound healing assay, HaCaT cells; type: cell-based, human; settings: HaCaT monolayer
# Protocol: The percentage of cell-covered area at each time point is reported on the y-axis. Control (Ctrl) represents cells not treated with the peptide. All data are the mean of at least three independent experiments ±SEM. […] The optimal concentration allowing gap closure was 0.25 μM.
# The experimental procedure is similar to that described in Example 6 with the following two differences: (i) 40,000 cells suspended in DMEM supplemented with 4 mM glutamine and 10% FBS were seeded on each side of the ibidi culture inserts instead of 70,000 cells in KGM-2g as for corneal epithelial cells; (ii) serum-free medium was used in the wound healing assay instead of medium supplemented with 5% FBS as for corneal epithelial cells. […] Overall, the experiments indicate that Esc-1a(1-21)NH2 can stimulate wound closure in different types of mammalian cells but this is with a different kinetic or optimal concentration and thus a stereospecific mechanism involving a direct/indirect activation of different signalling transduction cascades (depending on the selected cell type) likely subtends such events.
# in vitro = settings: for Peptide Amount (%): 24 h, 37° C.; for remaining at 5 h, 0.575 mM / remaining at 24 h, 0.575 mM: human
# Protocol: A total of 125 μl of a 0.92 mM solution of each peptide was incubated at 37° C. with 20 μl and 60 μl human serum. Samples were collected after 5 h and 24 h of incubation, precipitated with 200 μl methanol, and centrifuged for 2 min at 10,000 g.
# The crude solution was then analyzed by high-performance liquid chromatography (HPLC) and mass spectrometry. HPLC was performed with a Vydac C18 column, and the crude solution was diluted 5 times with 0.1% trifluoroacetic acid before injection and monitored at 280 nm.
# P. aeruginosa ATCC 27853 = settings: soluble free form, 1 μM, within 20 minutes in PBS
smiles,measurement,setting,value
CC[C@H](C)[C@H](NC(=O)CN)C(=O)N[C@@H](Cc1ccccc1)C(=O)N[C@@H](CO)C(=O)N[C@@H](CCCCN)C(=O)N[C@@H](CC(C)C)C(=O)N[C@@H](C)C(=O)NCC(=O)N[C@@H](CCCCN)C(=O)N[C@@H](CCCCN)C(=O)N[C@H](C(=O)N[C@@H](CCCCN)C(=O)N[C@@H](CC(N)=O)C(=O)N[C@@H](CC(C)C)C(=O)N[C@@H](CC(C)C)C(=O)N[C@H](C(=O)N[C@@H](CO)C(=O)NCC(=O)N[C@@H](CC(C)C)C(=O)N[C@@H](CCCCN)C(=O)NCC(N)=O)[C@@H](C)CC)[C@@H](C)CC [Esc-1a(1-21)NH2] (H-GIFSKLAGKKIKNLLISGLKG-NH2; N-terminus assumed),mean clinical score,"[1]; pre-treated (40 μM topical from 24 h before infection), day 1 PI",1.37±0.07
same,mean clinical score,"[1]; pre-treated, day 3 PI",2.29±0.17
same,mean clinical score,"[1]; pre-treated, day 5 PI",2.86±0.20
same,mean clinical score,"[1]; treated after infection (40 μM topical), day 1 PI",1.38±0.22
same,mean clinical score,"[1]; treated after infection, day 3 PI",2.36±0.24
same,mean clinical score,"[1]; treated after infection, day 5 PI",2.89±0.26
same,trophozoites stained positively with EthD-1,"[2]; 125 μg/ml, 6 hours",approximately 67%
same,trophozoites stained positively with EthD-1,"[2]; 250 μg/ml, 10 minutes",approximately 82%
same,trophozoites stained positively with EthD-1,"[2]; 250 μg/ml, 6 hours",~100%
same,time until orange/red fluorescence (dead/dying cells) detected,[2]; 500 μg/ml,≤ 10 min
same,optimal concentration allowing gap closure,HaCaT cells,0.25 µM
same,time to coverage of the wound-field,HaCaT cells; bell-shaped dose-response,9 to 12 h
same,Peptide Amount (%),in vitro; 10% human fresh serum,approximately 22.19%
same,Peptide Amount (%),in vitro; 30% human fresh serum,~11.5%
same,"remaining at 5 h, 0.575 mM",in vitro; 10% human fresh serum,44.4%
same,"remaining at 24 h, 0.575 mM",in vitro; 10% human fresh serum,22.2%
same,"remaining at 5 h, 0.575 mM",in vitro; 30% human fresh serum,20.9%
same,"remaining at 24 h, 0.575 mM",in vitro; 30% human fresh serum,11.5%
same,killing,P. aeruginosa ATCC 27853,~99.9%
